# Assay results reported in patent US10220112B2, “Cyclic antimicrobial pseudopeptides and uses thereof” (INSERM (INSTITUT NATIONAL DE LA SANTE ET DE LA RECHERCHE …, priority 2014, dated 2019).
# Like-named read-outs stand apart in the source and are kept apart here. Starred links: 1 amine or outer side, 2 acyl side, 3 side chain; linkers in the order of their positions; H or OH if unused. Non-standard residues stand in square brackets, D forms with d. Residues, ends and D or L forms follow the SMILES beside them. azaβ3(1Nal) = O=C(CN(Cc1cccc2ccccc12)N[*:1])[*:2]; X2 = O=C(CN(Cc1ccc2ccccc2c1)N[*:1])[*:2]; X1 = O=C(CN(CC(O)CO)N[*:1])[*:2]
# Key:
# human erythrocytes = experiment: Lytic activity against human erythrocytes; format: cell-based; settings: for Human cells H50 / Human cells % hemolysis at 500 μM: Table 2; for Human cells H50: maximal concentration 500 μM; for hemolysis at 0.2 mg/mL: 0.2 mg/mL (50 μM PepA1, 160 μM Pep11), value expected when choosing SEM concentration; for Human cells H50 (peptide concentration at which half of the human erythrocytes are lysed): Table 1, 2 h 37°C, maximal concentration 1 mg/mL; for hemolysis at the MIC: human erythrocytes, at the peptide's MIC
# Description: Human blood was collected from EFS (‘Etablissement Francais du Sang’) in Rennes (France). […] After centrifugation, the absorbance of the supernatant was measured at 414 nm. Three wells were positive controls, where the RBC were mixed with water 1% Triton X-100, in these wells the totality of RBC were hemolyzed and the release of hemoglobin was considered to be 100%. Three wells were negative controls, where the RBC were mixed with PBS buffer, in these wells hemolysis was considered to be null. The percentage of hemolysis in each test well was calculated by comparing with controls. For each peptide, bloods from three different donors were tested.
# [1] = system: MRSA strain S. aureus N315; settings: Table 2
# [2] = system: Escherichia coli strain K12 XL-Blue; settings: for E. coli MIC: strain K12 XL-Blue; for Minimum Bactericidal Concentration (MBC), E. coli: no colonies on BHI agar after 24 h 37°C
# Description: (§1) The antibacterial activity of the synthesized peptides was measured using a standard microdilution assay. Two bacterial species were tested, Staphylococcus aureus strain Newman and Escherichia coli strain K12 XL-Blue. Bacterial strains were subcultured in Mueller-Hinton broth. […] Bacteria were grown to an optical density (600 nm) of 0.5 and diluted 10^3 times in MH broth. Cell density in wells was 10^5 cfu/mL. 100 μL of this suspension was mixed with 100 μL of 2-fold serial dilutions of peptides in the well of a microtitre plate. Purified peptides were first dissolved in appropriate solvent to a final concentration of 2 mg/mL, in the microtitre plate, dilutions were made in MH broth from 1 to 0.004 mg/mL. […] Results obtained in massic concentrations were converted to molar concentrations for proper comparisons. Tests were performed in triplicate.
# (§2) The results presented in Table 2 below were obtained in triplicate as described in the case of Table 1 except that the starting concentration was […] instead of 1 mg/mL.
# [3] = system: Staphylococcus aureus strain Newman; settings: for S. aureus MIC: strain Newman; for Minimum Bactericidal Concentration (MBC), S. aureus: no colonies on BHI agar after 24 h 37°C
# Description: as §1, §2
# [4] = system: VISA strain S. aureus Mu 50; settings: Table 2
# [5] = Peptides stability in human sera (RP-HPLC)
# Description: Peptides stability in human sera. […] The initial time was recorded, and at known time intervals, 100 μL of reaction solution was removed and quenched by adding 200 μL of 95% EtOH and adjusted at pH=2 to eliminate the effect of peptides adsorption to the protein of the human serum. The cloudy reaction sample was cooled (4° C.) for 15 minutes and then spun at 14 000 rpm (Eppendorf centrifuge) for 4 minutes to pellet the precipitated serum proteins.
# The different peptides were incubated with human serum up to 10 hours, and their stability was analyzed and their half-lives determined by RP-HPLC (FIG. 1).
# [6] = Table 2, starting concentration 500 μM
# [7] = Table 1, 20 h 37°C, maximal concentration 1 mg/mL
molecule,measurement,setting,value
"CC(C)N(CC(=O)N[C@@H](CCCCN)C(N)=O)NC(=O)[C@H](CCCNC(=N)N)NC(=O)[C@H](CCCNC(=N)N)NC(=O)CN(Cc1ccc2ccccc2c1)NC(=O)[C@H](Cc1ccccc1)NC(=O)CN(N)Cc1ccc2ccccc2c1 [Pep21, H-Ψ2Nal-F-Ψ2Nal-RR-ΨV-K-NH2]",Human cells H50,human erythrocytes,nd (not detectable at the maximal concentration tested (500 μM))
"CC(C)[C@@H]1NC(=O)[C@H](CCCNC(=N)N)NC(=O)[C@H](CCCNC(=N)N)NC(=O)[C@H](Cc2c[nH]c3ccccc23)NC(=O)[C@H](Cc2ccccc2)NC(=O)[C@H](Cc2ccccc2)NC(=O)[C@H](CCCCN)NC1=O [Pep18, (FFWRRVK)] (cyclo(FFWRRVK))",MRSA MIC,[1],8 µM
same,E. coli MIC,[2]; [6],4 µM
same,S. aureus MIC,[3]; [6],4 µM
same,VISA MIC,[4],8 µM
"CC(C)N1CC(=O)N[C@@H](CCCCN)C(=O)NN(Cc2ccc3ccccc3c2)CC(=O)N[C@@H](Cc2ccccc2)C(=O)NN(Cc2ccc3ccccc3c2)CC(=O)N[C@@H](CCCNC(=N)N)C(=O)N[C@@H](CCCNC(=N)N)C(=O)N1 [Pep16, (Ψ2Nal-F-Ψ2Nal-RR-ΨV-K)]",Human cells H50,human erythrocytes,nd (not detectable at the maximal concentration tested (500 μM))
"N=C(N)NCCC[C@@H]1NC(=O)[C@H](Cc2c[nH]c3ccccc23)NC(=O)[C@H](Cc2ccccc2)NC(=O)CN(Cc2cccc3ccccc23)NC(=O)[C@H](CCCCN)NC(=O)CN(CC(O)CO)NC(=O)[C@H](CCCNC(=N)N)NC1=O (stereo partly shown) [Pep12, (Ψ1Nal-FWRR-ΨHyt-K)] (cyclo([azaβ3(1Nal)]FWRR[X1]K))",E. coli MIC,[2]; [6],16 µM
same,S. aureus MIC,[3]; [6],16 µM
same,Human cells % hemolysis at 500 μM,human erythrocytes,98%
same,Human cells H50,human erythrocytes,220 µM
"H-MLIFVHIIAPVISGCAIAFFSYWLSRRNTK-NH2 [PepA1, reference compound]",E. coli MIC,[2]; [7],8 µM
same,"Minimum Bactericidal Concentration (MBC), E. coli",[2],16 µM
same,S. aureus MIC,[3]; [7],8 µM
same,"Minimum Bactericidal Concentration (MBC), S. aureus",[3],16 µM
same,hemolysis at 0.2 mg/mL,human erythrocytes,50%
same,Human cells H50 (peptide concentration at which half of the human erythrocytes are lysed),human erythrocytes,70 µM
same,hemolysis at the MIC,human erythrocytes,20%
"CC(C)C[C@@H]1NC(=O)[C@H](Cc2c[nH]c3ccccc23)NC(=O)[C@H](Cc2ccccc2)NC(=O)[C@H](Cc2ccccc2)NC(=O)[C@H](CCCCN)NC(=O)CN(CC(O)CO)NC(=O)[C@H](CCCNC(=N)N)NC(=O)[C@H](CCCNC(=N)N)NC1=O (stereo partly shown) [Pep10, (FFWLRRΨHytK)] (cyclo(FFWLRR[X1]K))","MIC, fold lower compared to Pep9, E. coli",[2],seven-fold
same,E. coli MIC,[2]; [7],13 µM
same,"MIC, fold lower compared to Pep9, S. aureus",[3],four
same,S. aureus MIC,[3]; [7],25 µM
same,lysis of human erythrocytes (in words),human erythrocytes,slightly hemolytic
same,Human cells H50 (peptide concentration at which half of the human erythrocytes are lysed),human erythrocytes,150 µM
"N=C(N)NCCC[C@@H]1NC(=O)CN(Cc2ccc3ccccc3c2)NC(=O)[C@H](Cc2ccccc2)NC(=O)[C@H](Cc2ccccc2)NC(=O)[C@H](CCCCN)NC(=O)CN(CC(O)CO)NC(=O)[C@H](CCCNC(=N)N)NC1=O (stereo partly shown) [Pep15, (FFΨ2-Nal-RR-ΨHyt-K)] (cyclo(FF[X2]RR[X1]K))",MRSA MIC,[1],2 µM
same,E. coli MIC,[2]; [6],2 µM
same,S. aureus MIC,[3]; [6],2 µM
same,Human cells % hemolysis at 500 μM,human erythrocytes,3%
same,Human cells H50,human erythrocytes,nd (not detectable at the maximal concentration tested (500 μM))
same,VISA MIC,[4],2 µM
C[C@@H](O)[C@@H]1NC(=O)[C@H](CCCNC(=N)N)NC(=O)[C@H](CCCNC(=N)N)NC(=O)[C@H](CO)NC(=O)[C@H](Cc2c[nH]c3ccccc23)NC(=O)[C@H](Cc2ccccc2)NC(=O)[C@H](Cc2ccccc2)NC(=O)[C@H](CCCCN)NC1=O [Pep7] (cyclo(FFWSRRTK)),E. coli MIC,[2]; [7],13 µM
same,S. aureus MIC,[3]; [7],30 µM
same,"antibacterial activity, fold increase compared to Pep6",[3]; species not specified,two-fold
same,Human cells H50 (peptide concentration at which half of the human erythrocytes are lysed),human erythrocytes,14 µM
"CC(C)C[C@H](NC(=O)[C@H](Cc1c[nH]c2ccccc12)NC(=O)[C@H](Cc1ccccc1)NC(=O)[C@@H](N)Cc1ccccc1)C(=O)N[C@@H](CCCNC(=N)N)C(=O)N[C@@H](CCCNC(=N)N)C(=O)NN(CC(=O)N[C@@H](CCCCN)C(N)=O)CC(O)CO (stereo partly shown) [Pep9, H-FFWLRRΨHytK-NH2] (H-FFWLRR[X1]K-NH2)",E. coli MIC,[2]; [7],100 µM
same,"MIC, fold lower compared to Pep4, S. aureus",[3],two-fold
same,S. aureus MIC,[3]; [7],100 µM
same,lysis of human erythrocytes (in words),human erythrocytes,did not trigger detectable lysis
same,Human cells H50 (peptide concentration at which half of the human erythrocytes are lysed),human erythrocytes,"nd (not detectable at the maximal concentration tested (1 mg/mL, 300 to 900 μM))"
CC(C)C[C@@H]1NC(=O)[C@H](Cc2c[nH]c3ccccc23)NC(=O)[C@H](Cc2ccccc2)NC(=O)[C@H](Cc2ccccc2)NC(=O)[C@H](CCCCN)NC(=O)[C@H]([C@@H](C)O)NC(=O)[C@H](CCCNC(=N)N)NC(=O)[C@H](CCCNC(=N)N)NC(=O)[C@H](CO)NC1=O [Pep6] (cyclo(FFWLSRRTK)),"MIC, fold reduced compared to Pep5, E. coli",[2],ten-fold
same,"MIC, fold reduced compared to Pep5, S. aureus",[3],ten-fold
same,fold higher activity than linear Pep4,[3]; species not specified,4 fold
same,stabilizing effect in human serum compared with linear Pep4,[5],~320 fold
same,lysis of human erythrocytes (in words),human erythrocytes,substantial hemolysis
same,Human cells H50 (peptide concentration at which half of the human erythrocytes are lysed),human erythrocytes,5 µM
"CC(C)[C@@H]1NC(=O)[C@H](CCCNC(=N)N)NC(=O)[C@H](CCCNC(=N)N)NC(=O)CN(Cc2cccc3ccccc23)NC(=O)[C@H](Cc2ccccc2)NC(=O)CN(Cc2cccc3ccccc23)NC(=O)[C@H](CCCCN)NC1=O [Pep19, (Ψ1Nal-F-Ψ1Nal-RRVK)] (cyclo([azaβ3(1Nal)]F[azaβ3(1Nal)]RRVK))",MRSA MIC,[1],4 µM
same,E. coli MIC,[2]; [6],4 µM
same,S. aureus MIC,[3]; [6],4 µM
same,Human cells % hemolysis at 500 μM,human erythrocytes,7%
same,Human cells H50,human erythrocytes,nd (not detectable at the maximal concentration tested (500 μM))
same,VISA MIC,[4],4 µM
"N=C(N)NCCC[C@@H]1NC(=O)[C@H](Cc2c[nH]c3ccccc23)NC(=O)[C@H](Cc2ccccc2)NC(=O)[C@H](Cc2ccccc2)NC(=O)[C@H](CCCCN)NC(=O)CN(CC(O)CO)NC(=O)[C@H](CCCNC(=N)N)NC1=O (stereo partly shown) [Pep11, (FFWRRΨHytK)] (cyclo(FFWRR[X1]K))",E. coli MIC,[2]; [7],3 µM
same,"Minimum Bactericidal Concentration (MBC), E. coli",[2],8 µM
same,S. aureus MIC,[3]; [7],7 µM
same,fold higher antibacterial activity compared to Pep10,[3]; against the two model bacteria,four-fold
same,"Minimum Bactericidal Concentration (MBC), S. aureus",[3],16 µM
same,higher stability in human serum than the PepA1 parental peptide,[5],~240 fold
same,fold less haemolytic on human erythrocytes than PepA1,human erythrocytes,about 12 fold
same,fold less hemolytic compared to Pep10,human erythrocytes,six-fold
same,hemolysis at 0.2 mg/mL,human erythrocytes,10%
same,Human cells H50 (peptide concentration at which half of the human erythrocytes are lysed),human erythrocytes,840 µM
same,hemolysis at the MIC,human erythrocytes,no hemolysis
H-FFSWLSRRTK-NH2 [Pep3],E. coli MIC,[2]; [7],95 µM
same,S. aureus MIC,[3]; [7],190 µM
same,Human cells H50 (peptide concentration at which half of the human erythrocytes are lysed),human erythrocytes,"nd (not detectable at the maximal concentration tested (1 mg/mL, 300 to 900 μM))"
H-FFWLSRTK-NH2 [Pep5],"MIC, fold higher than Pep4, E. coli",[2],two-fold
same,"MIC, fold higher than Pep4, S. aureus",[3],two-fold
same,Human cells H50 (peptide concentration at which half of the human erythrocytes are lysed),human erythrocytes,"nd (not detectable at the maximal concentration tested (1 mg/mL, 300 to 900 μM))"
"C[C@@H](O)[C@@H]1NC(=O)[C@H](CCCNC(=N)N)NC(=O)[C@H](CCCNC(=N)N)NC(=O)[C@H](Cc2c[nH]c3ccccc23)NC(=O)[C@H](Cc2ccccc2)NC(=O)[C@H](Cc2ccccc2)NC(=O)[C@H](CCCCN)NC1=O [Pep8, (FFWRRTK)] (cyclo(FFWRRTK))",fold more antibacterial than Pep7,[3]; species not specified,~3 fold
same,fold less hemolytic than Pep7,human erythrocytes,10 fold
same,Human cells H50 (peptide concentration at which half of the human erythrocytes are lysed),human erythrocytes,160 µM
H-FFSYWLSRRTK-NH2 [Pep2],E. coli MIC,[2]; [7],80 µM
same,S. aureus MIC,[3]; [7],170 µM
same,Human cells H50 (peptide concentration at which half of the human erythrocytes are lysed),human erythrocytes,"nd (not detectable at the maximal concentration tested (1 mg/mL, 300 to 900 μM))"
H-FFWLSRRTK-NH2 [Pep4],E. coli MIC,[2]; [7],100 µM
same,S. aureus MIC,[3]; [7],200 µM
same,Human cells H50 (peptide concentration at which half of the human erythrocytes are lysed),human erythrocytes,"nd (not detectable at the maximal concentration tested (1 mg/mL, 300 to 900 μM))"
